Experimental findings from ChEMBL document CHEMBL4725308, “MK-5204: An orally active β-1,3-glucan synthesis inhibitor” (Bioorg Med Chem Lett, 2020) are described below.

One series concerns Aspergillus fumigatus. The series is described as follows: Antifungal activity against Aspergillus fumigatus MF5668 assessed as fungal growth inhibition measured after 24 hrs by liquid microdilution method. Format: functional. To be noted: read-out: MEC.
The nature of series [1]: Oral bioavailability in mouse. Format: ADME, organism-based. To be noted: in vivo.
Series [2] concerns Candida albicans. Briefly: Antifungal activity against Candida albicans MY1055 infected in DBA mouse model assessed as log change in colony forming units in kidney at 12.5 mg/kg, po bid for 2 days and measured after 4 days by TOKA. The settings on record: time 2 day. The series is classed as functional.
In series [3] the test system is Candida albicans. Briefly: Antifungal activity against Candida albicans MY1055 infected in DBA/2 mouse model assessed as log change in colony forming units in kidney at 6.5 mg/kg, po bid for 2 days and measured after 4 days by TOKA. To be noted: time 2 day. Format: functional.
In series [4] the test system is Candida albicans. The series is described as follows: Antifungal activity against Candida albicans MY1055 assessed as fungal growth inhibition measured after 24 hrs by liquid microdilution method. The series is classed as functional.
Series [5] in a line: Inhibition of beta-1,3-glucan synthase in Candida albicans MY1055 microsomal membrane using UDP-[3H]-glucose as substrate incubated for 2 hrs in presence of UTP by radioactivity-based assay. The series is classed as cell membranes.
In series [6] the test system is Candida albicans. Briefly: Antifungal activity against Candida albicans MY1055 infected in DBA/2 mouse model assessed as log change in colony forming units in kidney at 25 mg/kg, po bid for 2 days and measured after 4 days by TOKA. To be noted: time 2 day. The series is classed as functional.
Series [7] relates to Candida albicans. Briefly: Antifungal activity against Candida albicans MY1055 assessed as fungal growth inhibition measured after 24 hrs in presence of mouse serum by liquid microdilution method. The series is classed as functional. On the technique in general: In broth dilution the organism is exposed to a series of concentrations in liquid medium.

Structures are written as SMILES. Converted amounts (≈) assume the structure as drawn. Some results are limits rather than exact numbers.

`CCCN[C@@](C)(CO[C@H]1[C@H](n2ncnc2C(N)=O)C[C@@]23COC[C@@]1(C)[C@@H]2CC[C@H]1C3=CC[C@@]2(C)[C@H](C(=O)O)[C@@](C)([C@H](C)C(C)C)CC[C@]12C)C(C)C`: the minimal effective concentration with Aspergillus fumigatus is less than 0.03 µg/mL. Moreover, the bioavailability (as a rule, the share of a dose that reaches the circulation, judged against a reference dose that is usually intravenous) in series [1] stood at 19%. Also, the Activity is reported as -0.8 log CFU with Candida albicans [2], -0.7 log CFU with Candida albicans [3] and -1.9 log CFU in the series on Candida albicans [6]. Also, the MIC (as a rule, the smallest concentration in the dilution series that meets the test's criterion for growth inhibition) with Candida albicans [4] came to 0.5 µg/mL (≈ 0.691 µM); in the series on Candida albicans [7], 32 µg/mL. The IC50 (commonly the concentration needed to halve the response being measured) in series [5] stood at 0.015 µg/mL.
As for `CC(C)NC(=O)c1ncnn1[C@@H]1C[C@@]23COC[C@@](C)([C@@H]2CC[C@H]2C3=CC[C@@]3(C)[C@H](C(=O)O)[C@@](C)([C@H](C)C(C)C)CC[C@]23C)[C@H]1OC[C@](C)(N)C(C)C`, in the series on Aspergillus fumigatus, the minimal effective concentration was less than 0.03 µg/mL. Moreover, the bioavailability in series [1] stood at 10%. The Activity was -1.8 log CFU in the series on Candida albicans [2], -0.4 log CFU in the series on Candida albicans [3] and -2.3 log CFU in the series on Candida albicans [6]. Besides, the MIC in the series with Candida albicans [4] came out at 0.25 µg/mL (≈ 0.345 µM); in the series on Candida albicans [7], 16 µg/mL. Further, the IC50 in series [5] came out at 0.01 µg/mL.
`CC(C)[C@@H](C)[C@@]1(C)CC[C@]2(C)[C@H]3CC[C@@H]4[C@@]5(COC[C@]4(C)[C@@H](OC[C@@](C)(C(C)C)N(C)C)[C@H](n4ncnc4C(N)=O)C5)C3=CC[C@@]2(C)[C@@H]1C(=O)O`: the minimal effective concentration in the series on Aspergillus fumigatus is less than 0.03 µg/mL. The bioavailability in series [1] worked out at 21%. Besides, the results for the Activity in the series with Candida albicans [2], with Candida albicans [3] and with Candida albicans [6] were -1.4 log CFU, -0.3 log CFU and -1.8 log CFU, respectively. In addition, the MIC was 0.5 µg/mL (≈ 0.704 µM) with Candida albicans [4] and 16 µg/mL with Candida albicans [7]. In addition, in series [5], the IC50 turned out to be 0.015 µg/mL.
Turning to `CCN[C@@](C)(CO[C@H]1[C@H](n2ncnc2C(N)=O)C[C@@]23COC[C@@]1(C)[C@@H]2CC[C@H]1C3=CC[C@@]2(C)[C@H](C(=O)O)[C@@](C)([C@H](C)C(C)C)CC[C@]12C)C(C)C`, in the series with Aspergillus fumigatus, the minimal effective concentration was less than 0.03 µg/mL. In addition, the bioavailability in series [1] is 17%. The Activity is -1.1 log CFU in the series with Candida albicans [2], -1.1 log CFU in the series with Candida albicans [3] and -1.8 log CFU in the series on Candida albicans [6]. Also, the MIC in the series on Candida albicans [4] came to 0.25 µg/mL (≈ 0.352 µM); with Candida albicans [7], 16 µg/mL. Moreover, the IC50 in series [5] stood at 0.011 µg/mL.
As for `CCCNC(=O)c1ncnn1[C@@H]1C[C@@]23COC[C@@](C)([C@@H]2CC[C@H]2C3=CC[C@@]3(C)[C@H](C(=O)O)[C@@](C)([C@H](C)C(C)C)CC[C@]23C)[C@H]1OC[C@](C)(N)C(C)C`, the minimal effective concentration in the series on Aspergillus fumigatus is less than 0.03 µg/mL. This molecule showed a bioavailability in series [1] of 33%. Besides, the Activity in the series on Candida albicans [2] is given as -1.6 log CFU; in the series with Candida albicans [3], -1.1 log CFU; in the series with Candida albicans [6], -2.2 log CFU. The figures for the MIC in the series with Candida albicans [4] and with Candida albicans [7] were 0.5 µg/mL (≈ 0.691 µM) and 16 µg/mL, respectively. The IC50 in series [5] amounted to 0.007 µg/mL.
